Source: patent publication US11739122B2, “Glycopeptide antibiotic compounds, methods for producing the same, and uses thereof” (Academia Sinica, priority 2019, dated 2023)
Converted amounts (≈) assume the structure as drawn.

Legend:
MRSA ATCC 700787 [1] = assay: Minimal bactericidal concentration (MBC); format: cell-based, Staphylococcus aureus
Description: Minimal Bactericidal Concentration (MBC) Determination
The MBC test is an extension of the MIC examination. MBC was determined by performing subcultures on antibiotic-free agar from both the well where there was no visible growth at the MIC of a tested antibiotic and from the positive control well (with inoculum but without compounds). The plates were incubated at 37° C. for 18-24 hours. The MBC was taken as the lowest concentration of the test compound that results in more than 99.9% reduction of viable bacteria. If MBC was one or two dilutions above a given MIC value (MBC/MIC ratio was less than or equal to four), the antibiotic was considered bactericidal against the test organism.

E. faecalis ATCC 29302 = assay: MIC, broth microdilution; format: cell-based; conditions: EF ATCC 29302
In short: (§1)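 No visible growth defines the MIC. Plates are incubated 18-24 h at 37° C using a broth inoculum set near 1×10^8 CFU mL^−1.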

MRSA ATCC 700787 [2] = assay: In vivo efficacy, intraperitoneal MRSA infection; parameters: species or system mice; conditions: peritoneal fluid, 24 hours post-inoculation, single dose 20 mgkg^−1 IP
Description: In Vivo Efficacy of r6,N-Acyl-Glc Tei Analogs
Female C57BL/6 mice (6 weeks of age; about 16-19 g, 3-5 mice per group) were intraperitoneally inoculated with 300 μL of MRSA ATCC 700787 suspension (about 10^7 CFUmL^−1). For intranasal A. baumannii (ATCC 19606) inoculation, mice were anesthetized, and inoculated intranasally with about 10^7-10^8 CFUmL^−1 A. baumannii in 50 μL of PBS. Treatments were started 1 hour after the bacterial challenge. The dose administration to mice was set as follows: teicoplanin (1) or r6,C8-Tei analog (14) 20 mgkg^−1 was intraperitoneally injected to MRSA-infected mice; amikacin (15 mgkg^−1), teicoplanin (1) (30 mgkg^−1), kanamycin (30 mgkg^−1) or r1,Me2-r6,guanidino-C8 analog (24) (30 mgkg^−1) was intraperitoneally injected to AB-infected mice. To assess bacteraemia, the test animals were sacrificed to collect 1 mL of peritoneal fluid (PF) for MRSA counting or the lungs were lavaged to collect 0.6 mL bronchoalveolar lavage (BAL) fluid for A. baumannii counting.
For MRSA, mice were inoculated intraperitoneally (IP) with 0.3 mL of MRSA ATCC 700787 suspension (about 10^7 CFUmL^−1). […] For the saline treated control, bacterial count was calculated (about 7.5 log CFUmL^−1, FIG. 4A). […]

MRSA ATCC BAA-38 = assay: MIC, broth microdilution; format: cell-based, Staphylococcus aureus; conditions: MRSA ATCC BAA-38
In short: as §1

MRSA ATCC 700787 VRSA = assay: MIC, broth microdilution; format: cell-based, Staphylococcus aureus
In short: as §1

S. aureus ATCC 29213 = assay: MIC, broth microdilution; format: cell-based, Staphylococcus aureus; conditions: SA ATCC 29213
In short: as §1

MRSA ATCC 700698 hVISA = assay: MIC, broth microdilution; format: cell-based, Staphylococcus aureus; conditions: MRSA ATCC 700698 hVISA
In short: as §1

MRSA ATCC 43300 = assay: MIC, broth microdilution; format: cell-based, Staphylococcus aureus; conditions: MRSA ATCC 43300
In short: as §1

MRSA ATCC BAA-44 = assay: MIC, broth microdilution; format: cell-based, Staphylococcus aureus; conditions: MRSA ATCC BAA-44
In short: as §1

MRSA ATCC BAA-39 = assay: MIC, broth microdilution; format: cell-based, Staphylococcus aureus; conditions: MRSA ATCC BAA-39
In short: as §1

MRSA ATCC 700789 VRSA = assay: MIC, broth microdilution; format: cell-based, Staphylococcus aureus; conditions: MRSA ATCC 700789 VRSA
In short: as §1

[3] = tested on: VRE ATCC 700221 (vanA type); assay: Thin-section TEM, cell wall morphology; format: cell-based, enterococci; conditions: VRE ATCC700221, vanA type
Description: Thin-Section Transmission Electron Microscopy (TEM)
An overnight cultured MRSA ATCC 700787, VRE ATCC 700221 or A. baumannii ATCC 19606 was individually sub-cultured into a fresh medium. Bacteria at the exponential phase were treated with a given test compound at a concentration of 4×MIC for 1-4 hour at 37° C. and followed by wash and resuspension in PBS. Bacteria cells for the TEM analysis were prepared as follows: Cells were fixed with 2.5% glutaraldehyde for 30 minutes. After the fixation, cells were washed twice with PBS and fixed with 1% osmium tetraoxide for another 30 minutes. All the buffer was removed with distilled water. The cells were then stained with 1% uranyl acetate and dehydrated with a graded ethanol solution. Cells were embedded in resin. Finally, each sample was cut into thin slices of approximately 90 nm with a glass knife and stained with uranyl acetate. The images of bacterial morphological were recorded.
The cell wall was almost intact but interspersed with holes, where cell fluids outflew leading cells to death. In general, VRE was immune to compound 1 or 2 (>256 μgmL^−1), median sensitive to compound 14 (32 μgmL^−1), but highly sensitive to compound 28 (4 μgmL^−1). […]

Question: How did the MBC (MRSA ATCC 700787 [1]) turn out when `CCCCCCCC(=O)N[C@H]1[C@H](O[C@@H]2c3ccc(c(Cl)c3)Oc3cc4cc(c3O)Oc3ccc(cc3Cl)C[C@H]3NC(=O)[C@H](N)c5ccc(O)c(c5)Oc5cc(O)cc(c5)[C@H](NC3=O)C(=O)N[C@H]4C(=O)N[C@H]3C(=O)N[C@@H]2C(=O)N[C@H](C(=O)O)c2cc(O)cc(O)c2-c2cc3ccc2O)O[C@H](CO)[C@@H](O)[C@@H]1O` [Compound 14, r6,N-octyl-Glc Tei] was run?
Answer: 0.063 µg/mL (≈ 0.0424 µM)

Question: What about the MBC/MIC (MRSA ATCC 700787 [1]) of the same molecule?
Answer: 4

Question: And the MIC (E. faecalis ATCC 29302)?
Answer: 0.25 µg/mL (≈ 0.168 µM)

Question: And the “bacterial load reduced by” value (MRSA ATCC 700787 [2])?
Answer: 2 log CFUmL^−1

Question: And the MIC (MRSA ATCC BAA-38)?
Answer: 0.016 µg/mL (≈ 0.0108 µM)

Question: What about the MIC (MRSA ATCC 700787 VRSA; MRSA ATCC 700787, Table 4) of the same molecule?
Answer: 0.016 µg/mL (≈ 0.0108 µM)

Question: And the MIC (MRSA ATCC 700787 VRSA; MRSA ATCC 700787 VRSA)?
Answer: 0.016 µg/mL (≈ 0.0108 µM)

Question: What about the MIC (S. aureus ATCC 29213) of the same molecule?
Answer: 0.016 µg/mL (≈ 0.0108 µM)

Question: What about the MIC (MRSA ATCC 700698 hVISA) of the same molecule?
Answer: 0.016 µg/mL (≈ 0.0108 µM)

Question: What about the MIC (MRSA ATCC 43300) of the same molecule?
Answer: 0.063 µg/mL (≈ 0.0424 µM)

Question: What about the MIC (MRSA ATCC BAA-44) of the same molecule?
Answer: 0.016 µg/mL (≈ 0.0108 µM)

Question: What about the MIC (MRSA ATCC BAA-39) of the same molecule?
Answer: 0.016 µg/mL (≈ 0.0108 µM)

Question: And the MIC (MRSA ATCC 700789 VRSA)?
Answer: 0.5 µg/mL (≈ 0.336 µM)

Question: What about the “sensitivity of VRE to compound (concentration)” value [3] of the same molecule?
Answer: 32 µg/mL
